Measurements as given in patent US20120277180A1, “Cofactors and Methods for Use for Individuals” (VITAPATH GENETICS, INC, priority 2009, published 2012).
Numbering of substitutions follows the chain as printed. Names may count otherwise. “Also recorded” adds a separate entry of the source. Like-named read-outs stand apart in the source and are kept apart here.

Tests used:
[1] = test system: human MTHFR; experiment: In vivo yeast complementation growth assay: MTHFR alleles in fol3 met13 haploid yeast, growth without methionine with titrated folinic acid; assay type: cell-based; settings: for Functional impact / folate-responsiveness of MTHFR allele (growth in the absence of methionine): over a range of folinic acid concentrations, relative to the major allele; for Interaction of substitutions in compound (double-substitution) alleles with A222V: growth at 50 and 25 ug/ml folinic acid
[2] = test system: human MTHFR; experiment: Thermolability of MTHFR variants (heat treatment at 55° C. before enzyme assay); assay type: biochemical
Description: MTHFR enzyme activity assay. The assay, which measures the reverse reaction of that catalyzed by MTHFR under physiological conditions, was as described (Shan et al, 1999, supra) with the following modifications: Yeast extracts were created by bead lysis of 40 CD595 cell equivalents (fol3Δ met13Δ cells supplemented with folinic acid and methionine as above) in 350 ul of Lysis Buffer (100 mM Sucrose, 50 mM KHPO4 (pH 6.3), protease inhibitor cocktail). Extracts were clarified by a brief microcentrifugation, and 10-200 ug of extract used to determine the linear range of activity. Radiolabeled substrate (5-[^14C]MeTHF) was from GE Healthcare Life Sciences. For heat treatment, the reaction mixes without 5-[^14C]MeTHF were heated to 55° C. for the indicated times at which point 5-[^14C]MeTHF was added back and the reaction proceeded.
In addition to measuring specific activity, variants were tested for thermolability (a measure of enzyme stability) by heat treatment at 55° C. for various times.

[3] = upper level of intake considered safe for adults; cited from earlier work
[4] = target: T1, human MTHFR (Homo sapiens, UniProt P42898); experiment: In vivo yeast complementation growth assay: MTHFR alleles in fol3 met13 haploid yeast, growth without methionine with titrated folinic acid; assay type: cell-based; settings: folinic acid above 50 ug/ml; fol3 met13 cells
T1 construct: expressed in transfected cells; host or cells: Saccharomyces cerevisiae fol3Δ::KanMX met13Δ::KanMX (S288c background), GAL1 promoter
T1 sequence (P42898 whole entry): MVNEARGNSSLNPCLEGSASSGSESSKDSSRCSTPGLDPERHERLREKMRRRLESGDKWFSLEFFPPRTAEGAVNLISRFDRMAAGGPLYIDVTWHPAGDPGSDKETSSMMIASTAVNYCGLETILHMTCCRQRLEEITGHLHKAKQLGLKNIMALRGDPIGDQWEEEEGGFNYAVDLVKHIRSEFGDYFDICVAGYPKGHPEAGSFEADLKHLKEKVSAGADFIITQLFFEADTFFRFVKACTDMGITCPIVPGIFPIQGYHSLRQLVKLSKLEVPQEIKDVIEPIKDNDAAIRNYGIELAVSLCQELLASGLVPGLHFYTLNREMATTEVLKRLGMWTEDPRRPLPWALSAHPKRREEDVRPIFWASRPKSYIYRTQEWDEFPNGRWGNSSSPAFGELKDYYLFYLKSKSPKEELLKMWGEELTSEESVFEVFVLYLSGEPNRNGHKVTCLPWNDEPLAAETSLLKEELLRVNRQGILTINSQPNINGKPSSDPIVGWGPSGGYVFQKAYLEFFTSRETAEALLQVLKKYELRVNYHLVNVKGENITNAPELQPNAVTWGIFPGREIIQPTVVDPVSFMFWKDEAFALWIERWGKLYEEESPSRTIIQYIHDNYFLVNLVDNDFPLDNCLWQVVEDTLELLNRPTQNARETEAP

[5] = test system: fol3Δ::KanMX MET13 haploid yeast; assay type: cell-based, S. cerevisiae; settings: for Effect of folinic acid supplementation on growth: fol3Δ MET13 cells
[6] = test system: human CBS; experiment: Yeast complementation assay for CBS as a function of pyridoxine (cys4, sno/snz sextuple-delete strain); assay type: cell-based; settings: qualitative growth on solid media

## major allele: most common human MTHFR allele in the population, expressed in yeast
[1]
  Functional impact / folate-responsiveness of MTHFR allele (growth in the absence of methionine): did not completely compensate for loss of Met13p

## R519C: low-frequency human MTHFR variant, regulatory domain substitution R519C
[1]
  Functional impact / folate-responsiveness of MTHFR allele (growth in the absence of methionine): benign

## R134C: low-frequency human MTHFR variant, catalytic domain substitution R134C
[1]
  Functional impact / folate-responsiveness of MTHFR allele (growth in the absence of methionine): severely impaired at all folate concentrations; also recorded: responsive, but not a remedial allele; also recorded: nearly loss-of-function

## D223N: novel low-frequency human MTHFR variant, catalytic domain substitution D223N
[1]
  Functional impact / folate-responsiveness of MTHFR allele (growth in the absence of methionine): folate-remedial activity similar to A222V (though less severely impaired); also recorded: folate-remedial behavior
[2]
  Thermolability: increased thermolability

## C[N+](C)(C)CCO [Choline]
[3]
  UL (Upper Limit): 3500 mg

## A222V: common functionally impaired human MTHFR variant, catalytic domain substitution A222V
[1]
  Functional impact / folate-responsiveness of MTHFR allele (growth in the absence of methionine): folate-remedial behavior
[2]
  Thermolability: lost nearly all activity

## Vitamin B-6
[3]
  UL (Upper Limit): 100 mg

## O=C(O)c1cccnc1 [Niacin]
[3]
  UL (Upper Limit): 35 mg

## 5-formyl-tetrahydrofolate [folinic acid]
[4]
  Effect of folinic acid supplementation on growth of cells expressing the major human MTHFR allele: did not confer a significant growth advantage
[5]; fol3Δ cells vs FOL3 cells
  Folinic acid supplementation compared to growth of FOL3 cells: did not completely compensate for lack of endogenous folate biosynthesis
[5]; folinic acid above 50 ug/ml
  Effect of folinic acid supplementation on growth: did not confer any significant growth advantage
[5]; folinic acid below 50 ug/ml
  Effect of folinic acid supplementation on growth: growth clearly correlated with available folinic acid in the medium

## H213R: low-frequency human MTHFR variant, catalytic domain substitution H213R
[1]
  Functional impact / folate-responsiveness of MTHFR allele (growth in the absence of methionine): benign

## O=C1O[C@H]([C@@H](O)CO)C(O)=C1O [Vitamin C]
[3]
  UL (Upper Limit): 2000 mg

## D291N: low-frequency human MTHFR variant, catalytic domain substitution D291N
[1]
  Interaction of substitutions in compound (double-substitution) alleles with A222V: synergized when combined with A222V
  Functional impact / folate-responsiveness of MTHFR allele (growth in the absence of methionine): folate-remedial behavior

## M110I A222V: doubly-substituted compound human MTHFR allele
[1]
  Interaction of substitutions in compound (double-substitution) alleles with A222V: functioned more poorly than the sum of the individual alleles

## M110I: low-frequency human MTHFR variant, catalytic domain substitution M110I
[1]; 50 ug/ml folinic acid
  MTHFR function (growth) relative to the major allele: nearly indistinguishable from the major allele
[1]
  Interaction of substitutions in compound (double-substitution) alleles with A222V: synergized when combined with A222V
  Functional impact / folate-responsiveness of MTHFR allele (growth in the absence of methionine): folate-remedial behavior
[1]; listed as MilOl
  Functional impact / folate-responsiveness of MTHFR allele (growth in the absence of methionine): folate-remedial activity similar to A222V (though less severely impaired)

B1: 1278T: homocystinuria allele of human CBS, vitamin B6-responsive (protein, UniProt P35520 1-551, looked up, variant I278T)
Cystathionine beta-synthase: MPSETPQAEVGPTGCPHRSGPHSAKGSLEKGSPEDKEAKEPLWIRPDAPSRCTWQLGRPASESPHHHTAPAKSPKILPDILKKIGDTPMVRINKIGKKFGLKCELLAKCEFFNAGGSVKDRISLRMIEDAERDGTLKPGDTIIEPTSGNTGIGLALAAAVRGYRCIIVMPEKMSSEKVDVLRALGAEIVRTPTNARFDSPESHVGVAWRLKNEIPNSHILDQYRNASNPLAHYDTTADEILQQCDGKLDMLVASVGTGGTITGIARKLKEKCPGCRITGVDPEGSILAEPEELNQTEQTTYEVEGIGYDFIPTVLDRTVVDKWFKSNDEEAFTFARMLIAQEGLLCGGSAGSTVAVAVKAAQELQEGQRCVVILPDSVRNYMTKFLSDRWMLQKGFLKEEDLTEKKPWWWHLRVQELGLSAPLTVLPTITCGHTIEILREKGFDQAPVVDEAGVILGMVTLGNMLSSLLAGKVQPSDQVGKVIYKQFKQIRLTDTLGRLSHILEMDHFALVVHEQIQYHSTGKSSQRQMVFGVVTAIDLLNFVAAQERDQK
[6]
  Rescue of cys4 yeast growth defect as a function of pyridoxine supplementation: more sensitive than the wild-type enzyme to limiting B6 levels

B2: R266K: homocystinuria allele of human CBS, vitamin B6-responsive (protein, UniProt P35520 1-551, looked up, variant R266K)
Cystathionine beta-synthase: B1 Cystathionine beta-synthase with R266K, T278I
[6]
  Rescue of cys4 yeast growth defect as a function of pyridoxine supplementation: more sensitive than the wild-type enzyme to limiting B6 levels
